According to patent US20230146795A1, “ENHANCEMENT OF ANTI-TUMOR ACTIVITY OF SHP2 INHIBITOR PYRIMIDINONE IN COMBINATION WITH NOVEL CANCER MEDICINES IN CANCERS” (TAIHO PHARMACEUTICAL CO., LTD., priority 2020, published 2023):

Legend:
Format in all cases: cell-based
[1] = tested on: MKN45; assay: Anti-proliferation assay (CellTiter-Glo 2.0), combination index, MKN45
Procedure: (§1) Cell lines were obtained from ATCC or Health Science Research Resources Bank.
(§2) Each cell lines were collected by ordinary method, then suspended in indicated medium containing 10% fetal bovine serum in table 3. The number of cells seeded per well was set to 500 cells/20 μL. […] The concentration of each anti-cancer reagents set to 8 concentrations including 0 nM. After adding the medicine to the cells, the cells were further incubated at 37° C. for 3 days under 5% CO2. Cell survival rates were calculated by adding 20 μL of CellTiter-Glo(registered trademark) 2. 0 (Promega) solution to each well, incubating the cells at room temperature for 10 minutes, and then measuring the chemiluminescence intensity of each well using a plate reader (ARVO).
(§3) A combination index (CI) value at each combined concentration of the medicines was determined.

[2] = tested on: RT4; assay: Anti-proliferation assay (CellTiter-Glo 2.0), combination index, RT4
Procedure: as §1, §2, §3

[3] = tested on: NCI-H358; assay: Anti-proliferation assay (CellTiter-Glo 2.0), combination index, NCI-H358; details: for Description (combinatory effect by CI): Compound 1:combination drug molar ratio 1:9
Procedure: as §1, §2, §3

[4] = tested on: MV-4-11; assay: Anti-proliferation assay (CellTiter-Glo 2.0), combination index, MV-4-11
Procedure: as §1
384 well culture plate (781086, Greiner Bio-One International) was used for cell survival rate measurement assay. Each cell lines were collected by ordinary method, then suspended in indicated medium containing 10% fetal bovine serum in table 3. The number of cells seeded per well was set to 500 cells/20 μL. After incubation at 37° C. for 24 hours under 5% CO2, Compound 1 and additional compound having an antitumor effect or a vehicle (DMSO) was added to each well by using D300e Digital Dispenser (Tecan). The concentration of Compound 1 was set to 10 concentrations. The concentration of each anti-cancer reagents set to 8 concentrations including 0 nM. After adding the medicine to the cells, the cells were further incubated at 37° C. for 3 days under 5% CO2. Cell survival rates were calculated by adding 20 μL of CellTiter-Glo(registered trademark) 2. 0 (Promega) solution to each well, incubating the cells at room temperature for 10 minutes, and then measuring the chemiluminescence intensity of each well using a plate reader (ARVO).
as §3

[5] = Compound 1 123 + combination drug 3330 nmol/L (1:27)
[6] = Compound 1 13.7 + combination drug 123 nmol/L (1:9)
[7] = Compound 1 41.2 + combination drug 370 nmol/L (1:9)
[8] = Compound 1 123 + combination drug 1110 nmol/L (1:9)
[9] = Compound 1 370 + combination drug 3330 nmol/L (1:9)
[10] = Compound 1 1110 + combination drug 10000 nmol/L (1:9)
[11] = Compound 1 123 + combination drug 10000 nmol/L (1:81)
[12] = Compound 1 13.7 + combination drug 13.7 nmol/L (1:1)
[13] = Compound 1 41.2 + combination drug 41.2 nmol/L (1:1)
[14] = Compound 1 123 + combination drug 123 nmol/L (1:1)
[15] = Compound 1 4.57 + combination drug 370 nmol/L (1:81)
[16] = Compound 1 13.7 + combination drug 1110 nmol/L (1:81)
[17] = Compound 1 41.2 + combination drug 3330 nmol/L (1:81)
[18] = Compound 1:combination drug molar ratio 1:81
[19] = Compound 1 13.7 nmol/L + Oxalliplatin 370 nmol/L, molar ratio 1:27
[20] = Compound 1 41.2 nmol/L + Oxalliplatin 1110 nmol/L, molar ratio 1:27
[21] = Compound 1 123 nmol/L + Oxalliplatin 3330 nmol/L, molar ratio 1:27
[22] = Compound 1 370 nmol/L + Oxalliplatin 10000 nmol/L, molar ratio 1:27
[23] = Compound 1 4.57 nmol/L + Oxalliplatin 41.2 nmol/L, molar ratio 1:9
[24] = Compound 1 1.52 + combination drug 123 nmol/L (1:81)
[25] = Compound 1 4.57 + combination drug 41.2 nmol/L (1:9)
[26] = Compound 1 41.2 + combination drug 13.7 nmol/L (1:0.3)
[27] = Compound 1 370 + combination drug 123 nmol/L (1:0.3)
[28] = Compound 1 1110 + combination drug 370 nmol/L (1:0.3)
[29] = Compound 1 3330 + combination drug 1110 nmol/L (1:0.3)

COc1cc2c(Oc3ccc4[nH]c(C)cc4c3F)ccnc2cc1OCC1(N)CC1 [Anlotinib] was tested, and the CI [1, 5] was 0.755, the Fa [1, 5] was 0.7514 and the CI [2, 6] was 0.501. The Fa [2, 6] was 0.3362, the CI [2, 7] was 0.444 and the Fa [2, 7] was 0.5003. The CI [2, 8] was 0.387, the Fa [2, 8] was 0.7040 and the CI [2, 9] was 0.326. The Fa [2, 9] was 0.8765, the CI [2, 10] was 0.316 and the Fa [2, 10] was 0.9539. The “Description (combinatory effect by CI)” value ([2]; Compound 1:combination drug molar ratio 1:9) was “Synergy (0.3-0.7)”, the CI [3, 7] was 0.557 and the Fa [3, 7] was 0.3217. It also gave a CI [3, 8] of 0.416, a Fa [3, 8] of 0.5609 and a CI [3, 9] of 0.390. It also gave a Fa [3, 9] of 0.7902, a CI [3, 10] of 0.488 and a Fa [3, 10] of 0.9031. The “Description (combinatory effect by CI)” value [3] was “Synergy (0.3-0.7)”.

CCN(CC)CCNC(=O)c1c(C)[nH]c(/C=C2\C(=O)Nc3ccc(F)cc32)c1C [Sunitinib] gave a CI [1, 11] of 0.818, a Fa [1, 11] of 0.8052 and a CI [4, 12] of 0.262. For the same compound, the Fa [4, 12] was 0.9463, the CI [4, 13] was 0.327 and the Fa [4, 13] was 0.9651. It also gave a CI [4, 14] of 0.902, a Fa [4, 14] of 0.9666 and a CI [2, 15] of 0.687. For the same compound, the Fa [2, 15] was 0.1808, the CI [2, 16] was 0.392 and the Fa [2, 16] was 0.4883. For the same compound, the CI [2, 17] was 0.624, the Fa [2, 17] was 0.6270 and the “Description (combinatory effect by CI)” value [2, 18] was “Synergy (0.3-0.7)”. It also gave a CI [3, 7] of 0.502, a Fa [3, 7] of 0.4562 and a CI [3, 8] of 0.747. It also gave a Fa [3, 8] of 0.7002, a CI [3, 9] of 0.612 and a Fa [3, 9] of 0.9541. The “Description (combinatory effect by CI)” value [3] was “Synergy (0.3-0.7)”.

Work on O=C1[O][Pt]2([NH][C@@H]3CCCC[C@H]3[NH]2)[O]C1=O [Oxalliplatin] yielded a CI [1, 19] of 0.571, a Fa [1, 19] of 0.4748 and a CI [1, 20] of 0.322. It also gave a Fa [1, 20] of 0.6458, a CI [1, 21] of 0.273 and a Fa [1, 21] of 0.7808. It also gave a CI [1, 22] of 0.216, a Fa [1, 22] of 0.9038 and a CI [2, 23] of 0.932. The Fa [2, 23] was 0.2140, the CI [3, 19] was 0.699 and the Fa [3, 19] was 0.1376. The CI [3, 20] was 0.424, the Fa [3, 20] was 0.3478 and the CI [3, 21] was 0.623. The Fa [3, 21] was 0.4795 and the Description ([3]; combination effect, Compound 1 + Oxalliplatin, molar ratio 1:27) was “Synergy (0.3-0.7)”.

C#Cc1cccc(Nc2ncnc3cc(OCCOC)c(OCCOC)cc23)c1 [Erlotinib] showed a CI [4, 24] of 0.808, a Fa [4, 24] of 0.0915 and a CI [4, 15] of 0.880. It also gave a Fa [4, 15] of 0.2460, a CI [4, 16] of 0.610 and a Fa [4, 16] of 0.6556. The CI [4, 17] was 0.632, the Fa [4, 17] was 0.8799 and the CI [4, 11] was 0.962. The Fa [4, 11] was 0.9472, the “Description (combinatory effect by CI)” value [4, 18] was “Synergy (0.3-0.7)” and the CI [2, 15] was 0.421. For the same compound, the Fa [2, 15] was 0.2843, the CI [2, 16] was 0.464 and the Fa [2, 16] was 0.4079. It also gave a CI [2, 17] of 0.441, a Fa [2, 17] of 0.5677 and a CI [2, 11] of 0.308. The Fa [2, 11] was 0.7514, the “Description (combinatory effect by CI)” value [2, 18] was “Synergy (0.3-0.7)” and the CI [3, 25] was 0.617. The Fa [3, 25] was 0.1600, the CI [3, 6] was 0.145 and the Fa [3, 6] was 0.3804. For the same compound, the CI [3, 7] was 0.102, the Fa [3, 7] was 0.5542 and the CI [3, 8] was 0.206. For the same compound, the Fa [3, 8] was 0.6026, the CI [3, 9] was 0.256 and the Fa [3, 9] was 0.7034. It also gave a CI [3, 10] of 0.225 and a Fa [3, 10] of 0.8178.

With CNC(=O)c1cc(Oc2ccc(NC(=O)Nc3ccc(Cl)c(C(F)(F)F)c3)cc2)ccn1 [Sorafenib] the CI [4, 26] was 0.116, the Fa [4, 26] was 0.9439 and the Fa ([4]; Compound 1 123 + combination drug 41.2 nmol/L (1:0.3)) was 0.9578. For the same compound, the CI [4, 27] was 0.301, the Fa [4, 27] was 0.9643 and the CI [4, 28] was 0.759. For the same compound, the Fa [4, 28] was 0.9665, the CI [4, 29] was 0.865 and the Fa [4, 29] was 0.9766.
